# Measurements: US20250275976A1, “Methods of Treating Neuroinflammatory Conditions” (Athira Pharma, Inc., priority 2022, published 2025)
# Entries after “also recorded” stand apart in the source; their conditions may differ. Where two headings read alike, the source gives them in different places. Square brackets hold non-standard residues; d marks the D form. Peptide text beside a SMILES is read from it. * marks the point of attachment. Hexanoyl = CCCCCC(=O)*; Ahx = NCCCCCC(=O)O
# Legend:
# male CD-1 mice = assay: T-maze spontaneous alternation, LPS-induced cognitive deficit; assay type: in vivo, mouse; conditions: for Spontaneous alternation (%) Mean: LPS 250 μg/kg i.p.; for Recovery (%): saline/vehicle = 100%, LPS/vehicle = 0%
# Excerpt: Encephalitis refers to inflammation of the brain that may result in brain swelling fever, headache, confusion, and seizures. The source of neuroinflammation can vary widely, including due to viral, bacterial, parasitic, or fungal infection or due to autoimmune diseases. Lipopolysaccharide (LPS) is a bacterial endotoxin that induces an intense neuroinflammatory reaction and has been associated with cognitive decline. The ability of Compound A19 to reverse cognitive decline induced by LPS in a mouse model of encephalitis was studied using a T-maze assay. In a separate substantially similar assay, Compounds 1a and 5a were also assessed.
# Spontaneous and continuous alternation is the innate tendency of rodents to alternate free choices in a T-maze (T-CAT) over a series of successive runs. This sequential procedure relies on working memory and is sensitive to various pharmacological manipulations affecting memory processes. The present studies were conducted to evaluate the abilities of Compound A19, Compound 1a and Compound 5a to reverse LPS-induced cognitive deficit in the T-maze assay.
# Compound A19 was dissolved in 0.9% NaCl (saline) and vortexed periodically until complete dissolution and with the pH adjusted between 7.4 and 7.8. Compound A19 was used in concentrations of 0.125, 0.1, 0.05, 0.025 and 0.0125 mg/ml which when given in a volume of 10 ml/kg result in doses of 1.25, 1, 0.5, 0.25 and 0.125 mg/kg, respectively. Compound 1a was dissolved at 160 mg/ml in 100% DMSO and vortexed until complete dissolution. Then the above stock solution was diluted in 20% PEG-400 and 78% 0.9% NaCl, whereby the stock solution comprised 2% of the final solution. Compound 1a was used in concentrations of 0.05, 0.2, 0.8, 1.6 and 3.2 mg/ml which when given in a volume of 10 ml/kg result in doses of 0.5, 2, 8, 16 and 32 mg/kg, respectively. Compound 5a was dissolved at 100 mg/ml in 100% DMSO and vortexed until complete dissolution. Then the above stock solution was diluted in 20% PEG-400 and 78% 0.9% NaCl, whereby the stock solution comprised 2% of the final solution. Compound 5a was used in concentrations of 0.125, 0.25, 0.5, 1 and 2 mg/ml which when given in a volume of 10 ml/kg result in doses of 1.25, 2.5, 5, 10 and 20 mg/kg, respectively.
# Memantine was dissolved in saline. Memantine was used in concentration of 0.1 and 0.01 mg/ml, which when given in a volume of 10 ml/kg result in a dose of 1 and 0.1 mg/kg, respectively. Memantine is approved for symptomatic treatment of Alzheimer's disease was used as a reference compound.
# LPS was dissolved in saline and prepared at a concentration of 0.0125 mg/ml and given intraperitoneally (i.p.) at a dosage volume of 20 ml/kg to yield a dose of 0.25 mg/kg ([…]).
# Four to five weeks old male CD-1 mice (Janvier; Le Genest St Isle - France) were used for the study.
# LPS was injected i.p. 2 weeks prior the T-maze trial. Compound 1a was tested at doses of 0.5, 2, 8, 16, and 32 mg/kg administered orally (p.o.) for 14 days with last treatment given 60 min before the T-maze trial. Compound 5a was tested at the doses of 1.25, 2.5, 5, 10, and 20 mg/kg administered orally (p.o.) for 14 days with last treatment given 60 min before the T-maze trial. LPS was injected i.p. 2 weeks prior the T-maze trial.
# The T-maze apparatus was made of gray Plexiglas with a main stem (55 cm long×10 cm wide×20 cm high) and two arms (30 cm long×10 cm wide×20 cm high) positioned at a 90-degree angle relative to the main stem. A start box (15 cm long×10 cm wide) was separated from the main stem by a guillotine door. Horizontal doors were also provided to close specific arms during the force choice alternation task.
# The experimental protocol consisted of a single session, which started with one “forced-choice” trial, followed by 14 “free-choice” trials. In the “forced-choice” trial, the animal was confined 5 seconds in the start arm and was then released while either the left or right goal arm was blocked by a horizontal door. […]
# [1] = test system: Rat primary cortical neuron cultures; conditions: LPS 24 h
# [2] = test system: Rat primary cortical neuron cultures; assay: Neuroprotection of rat primary cortical neurons against neurotoxic insults (Cell Titer-Glo viability); assay type: cell-based
# Excerpt: HGF/MET signaling activation is expected to protect cells, including neurons, from cell death. […] Hydrogen peroxide (H2O2) treatment produces toxic oxidative stress. Bacteria-derived lipopolysaccharide (LPS) treatment induces inflammatory cell death. Treatment with excess glutamate (Glut) produces excitotoxicity in neuron cultures. Treatment with 1-methyl-4-phenylpyridinium (MPP^+) causes cell death by inhibition of mitochondrial function.
# Cells were then subjected to individual conditional insults for 24 hours at the following concentrations: H2O2 at 1 uM, LPS at 1 uM, glutamate at 25 uM, or MPP+ at 500 uM. All treatments contained recombinant human HGF (R&D Systems) at a concentration of 5 ng/ml. MK-801 (Dizocilpine) is a pore blocker of the N-Methyl-D-aspartate (NMDA) receptor, a glutamate receptor, and was used as a positive control.
# Data was normalized to DMSO+HGF control set at 100% cell viability.
# Data are reported as statistical significance vs. insult control, with NS=not significant, +=p<0.05, ++=p<0.01, and +++=p<0.001.
smiles,measurement,setting,value
CCC(C)CN1CC2N(Cc3ccc(C(F)(F)F)cc3)CCC(=O)N2[C@@H](C)C1=O (some centres unmarked) [Compound 5a],Reversal of LPS-induced cognitive deficit in T-maze (result in words),"male CD-1 mice; ANOVA, Fisher's PLSD, p<0.05, doses as in the value",significant reversal of LPS-induced cognitive deficits at all doses; also recorded: reversed the LPS-induced cognitive disruption
same,Spontaneous alternation (%) Mean,male CD-1 mice; Compound 5a 1.25 mg/kg p.o. daily 14 days,59%
same,Spontaneous alternation (%) Mean,"male CD-1 mice; Compound 5a 1.25 mg/kg p.o. daily 14 days, listed as Cmpd 5a",59.3%
same,Recovery (%),male CD-1 mice; Compound 5a 1.25 mg/kg p.o.,58%
same,Spontaneous alternation (%) Mean,male CD-1 mice; Compound 5a 2.5 mg/kg p.o. daily 14 days,58%
same,Spontaneous alternation (%) Mean,"male CD-1 mice; Compound 5a 2.5 mg/kg p.o. daily 14 days, listed as Cmpd 5a",57.9%
same,Recovery (%),male CD-1 mice; Compound 5a 2.5 mg/kg p.o.,53%
same,Spontaneous alternation (%) Mean,male CD-1 mice; Compound 5a 5 mg/kg p.o. daily 14 days,61%
same,Spontaneous alternation (%) Mean,"male CD-1 mice; Compound 5a 5 mg/kg p.o. daily 14 days, listed as Cmpd 5a",60.7%
same,Recovery (%),male CD-1 mice; Compound 5a 5 mg/kg p.o.,64%
same,Spontaneous alternation (%) Mean,male CD-1 mice; Compound 5a 10 mg/kg p.o. daily 14 days,58%
same,Spontaneous alternation (%) Mean,"male CD-1 mice; Compound 5a 10 mg/kg p.o. daily 14 days, listed as Cmpd 5a",57.9%
same,Recovery (%),male CD-1 mice; Compound 5a 10 mg/kg p.o.,53%
same,Spontaneous alternation (%) Mean,male CD-1 mice; Compound 5a 20 mg/kg p.o. daily 14 days,60%
same,Spontaneous alternation (%) Mean,"male CD-1 mice; Compound 5a 20 mg/kg p.o. daily 14 days, listed as Cmpd 5a",60.0%
same,Recovery (%),male CD-1 mice; Compound 5a 20 mg/kg p.o.,61%
same,Significance of neuroprotection vs 1 uM LPS,[1]; dose 0.1 nM,+++ (+++ indicates p<0.001)
same,Significance of neuroprotection vs 1 uM LPS,[1]; dose 1 nM,+++ (+++ indicates p<0.001)
same,Significance of neuroprotection vs 1 uM LPS,[1]; dose 10 nM,+++ (+++ indicates p<0.001)
same,Significance of neuroprotection vs 1 uM LPS,[1]; dose 100 nM,+++ (+++ indicates p<0.001)
same,Significance of neuroprotection vs 1 uM LPS,[1]; dose 1 μM,+++ (+++ indicates p<0.001)
"CCCCCC(=O)N[C@@H](Cc1ccc(O)cc1)C(=O)N[C@H](C(=O)NCCCCCC(N)=O)[C@@H](C)CC [Compound A19 active metabolite, dihexa] (Hexanoyl-Tyr-Ile-[Ahx]-NH2)",Statistical significance vs. insult control (cell viability),"[2]; Glutamate (25 uM) insult, [Compound A19 active metabolite] 0.1 nM + HGF (5 ng/ml)",+ (+ = p < 0.05)
same,Statistical significance vs. insult control (cell viability),"[2]; Glutamate (25 uM) insult, [Compound A19 active metabolite] 1 nM + HGF (5 ng/ml)",++ (++ = p < 0.01)
same,Statistical significance vs. insult control (cell viability),"[2]; Glutamate (25 uM) insult, [Compound A19 active metabolite] 100 nM (second column headed 100 nM) + HGF (5 ng/ml)",+ (+ = p < 0.05)
same,Statistical significance vs. insult control (cell viability),"[2]; Glutamate (25 uM) insult, [Compound A19 active metabolite] 100 nM + HGF (5 ng/ml)",+ (+ = p < 0.05)
same,Statistical significance vs. insult control (cell viability),"[2]; H2O2 (1 uM) insult, [Compound A19 active metabolite] 0.1 nM + HGF (5 ng/ml)",+++ (+++ = p < 0.001)
same,Statistical significance vs. insult control (cell viability),"[2]; H2O2 (1 uM) insult, [Compound A19 active metabolite] 1 nM + HGF (5 ng/ml)",+++ (+++ = p < 0.001)
same,Statistical significance vs. insult control (cell viability),"[2]; H2O2 (1 uM) insult, [Compound A19 active metabolite] 100 nM (second column headed 100 nM) + HGF (5 ng/ml)",+++ (+++ = p < 0.001)
same,Statistical significance vs. insult control (cell viability),"[2]; H2O2 (1 uM) insult, [Compound A19 active metabolite] 100 nM + HGF (5 ng/ml)",+++ (+++ = p < 0.001)
same,Statistical significance vs. insult control (cell viability),"[2]; H2O2 (1 uM) insult, [Compound A19 active metabolite] 1 uM + HGF (5 ng/ml)",+++ (+++ = p < 0.001)
same,Neuroprotection against the cohort of insults (result in words),"[2]; H2O2, glutamate, LPS, MPP+, broad range of concentrations",effective neuroprotective treatment at a broad range of concentrations against the entire cohort of insults tested
same,Statistical significance vs. insult control (cell viability),"[2]; LPS (1 uM) insult, [Compound A19 active metabolite] 0.1 nM + HGF (5 ng/ml)",++ (++ = p < 0.01)
same,Statistical significance vs. insult control (cell viability),"[2]; LPS (1 uM) insult, [Compound A19 active metabolite] 1 nM + HGF (5 ng/ml)",++ (++ = p < 0.01)
same,Statistical significance vs. insult control (cell viability),"[2]; LPS (1 uM) insult, [Compound A19 active metabolite] 100 nM (second column headed 100 nM) + HGF (5 ng/ml)",+++ (+++ = p < 0.001)
same,Statistical significance vs. insult control (cell viability),"[2]; LPS (1 uM) insult, [Compound A19 active metabolite] 100 nM + HGF (5 ng/ml)",++ (++ = p < 0.01)
same,Statistical significance vs. insult control (cell viability),"[2]; LPS (1 uM) insult, [Compound A19 active metabolite] 1 uM + HGF (5 ng/ml)",++ (++ = p < 0.01)
same,Statistical significance vs. insult control (cell viability),"[2]; MPP+ (500 uM) insult, [Compound A19 active metabolite] 0.1 nM + HGF (5 ng/ml)",+++ (+++ = p < 0.001)
same,Statistical significance vs. insult control (cell viability),"[2]; MPP+ (500 uM) insult, [Compound A19 active metabolite] 1 nM + HGF (5 ng/ml)",+++ (+++ = p < 0.001)
same,Statistical significance vs. insult control (cell viability),"[2]; MPP+ (500 uM) insult, [Compound A19 active metabolite] 100 nM (second column headed 100 nM) + HGF (5 ng/ml)",+++ (+++ = p < 0.001)
same,Statistical significance vs. insult control (cell viability),"[2]; MPP+ (500 uM) insult, [Compound A19 active metabolite] 100 nM + HGF (5 ng/ml)",+++ (+++ = p < 0.001)
same,Statistical significance vs. insult control (cell viability),"[2]; MPP+ (500 uM) insult, [Compound A19 active metabolite] 1 uM + HGF (5 ng/ml)",+++ (+++ = p < 0.001)
